Data from patent US6300350A, “Treatment of emphysema using RARy selective retinoid agonists” (priority 2000, dated 2001).

Key:
RARβ [1] = target: T1, RARβ (Homo sapiens, UniProt P10826); experiment: Transactivation, RARβ; type: cell-based; settings: Table II
T1 sequence (P10826 1-455): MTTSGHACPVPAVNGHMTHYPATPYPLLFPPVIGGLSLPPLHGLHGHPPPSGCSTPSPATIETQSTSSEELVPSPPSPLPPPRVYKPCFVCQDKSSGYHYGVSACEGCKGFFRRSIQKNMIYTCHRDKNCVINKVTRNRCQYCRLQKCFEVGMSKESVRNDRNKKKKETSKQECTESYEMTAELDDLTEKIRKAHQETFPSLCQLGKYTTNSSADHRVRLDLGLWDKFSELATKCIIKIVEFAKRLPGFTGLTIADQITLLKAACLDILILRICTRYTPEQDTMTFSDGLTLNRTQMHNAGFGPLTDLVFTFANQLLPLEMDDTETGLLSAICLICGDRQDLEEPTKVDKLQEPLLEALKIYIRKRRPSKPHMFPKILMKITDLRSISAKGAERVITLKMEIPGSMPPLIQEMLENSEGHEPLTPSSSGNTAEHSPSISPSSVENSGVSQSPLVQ
Source text: As used herein, the term "transactivation" refers to the ability of a retinoid to activate the transcription of a gene where the gene transcription is initiated by the binding of a ligand to the particular retinoic acid receptor being tested, i.e., RARα, RARβ, or RARγ. Determining the ability of a compound to transactivate a retinoic acid receptor may be performed by methods known to those of skill in the art. […] Apfel etal., Proc. Nat.

RARα = target: T2, RARα (Homo sapiens, UniProt P10276); experiment: Binding, RARα (ligand binding assay); settings: Table II
T2 sequence (P10276 1-462): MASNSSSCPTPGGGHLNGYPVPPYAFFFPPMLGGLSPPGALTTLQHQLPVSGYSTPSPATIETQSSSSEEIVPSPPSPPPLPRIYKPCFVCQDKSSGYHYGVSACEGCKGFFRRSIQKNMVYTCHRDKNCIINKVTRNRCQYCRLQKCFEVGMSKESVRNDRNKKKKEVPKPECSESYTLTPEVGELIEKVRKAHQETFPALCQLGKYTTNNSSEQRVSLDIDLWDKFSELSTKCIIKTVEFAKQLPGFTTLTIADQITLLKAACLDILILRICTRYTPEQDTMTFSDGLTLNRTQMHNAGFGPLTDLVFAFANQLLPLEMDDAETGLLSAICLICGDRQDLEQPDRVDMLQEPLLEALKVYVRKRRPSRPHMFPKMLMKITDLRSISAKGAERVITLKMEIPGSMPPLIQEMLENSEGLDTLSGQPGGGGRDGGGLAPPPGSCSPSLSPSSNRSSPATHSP
Source text: (§1) The RARγ agonist selectivity of a compound can be determined by routine ligand binding assays known to one of skill in the art such as described in C. Apfel et al., Proc. Nat.

RARβ [2] = target: T1, RARβ; experiment: Binding, RARβ (ligand binding assay); settings: Table II
Source text: as §1

tropoelastin gene = experiment: RAR transactivation of steady state tropoelastin gene in normal human lung fibroblasts (CCD-16Lu); type: cell-based
Procedure: Transactivation of the tropoelastin gene in normal human lung fibroblasts (CCD-16Lu) was performed as described below. Cells were grown to confluence at which time fresh media +/- ATRA or selective retiniod was added to the basal culture. ATRA and/or selective retiniods were used at a concentration of 1×10^-7 M. The cell layer was lysed using a guanidinium-based buffer (TRIZOL/Sigma) for RNA extraction and analysis. Amplification of tropoelastin and GAPDH RNA was performed by standard quantitative RT-PCR (TAQMAN, Perken/Elmer) using appropriate selective primers. Tropo-elastin gene expression was normalized to the expression of standard house-keeping gene (GAPDH).
Samples were run in triplicate.

[3] = test system: elastase-induced emphysema; experiment: Alveolar repair in rat model of elastase-induced emphysema, intraperitoneal; type: in vivo, male Sprague Dawley rats; design: Alveolar Area: unit not given here
Procedure: Animals were divided into treatment groups of approximately eight. […] Three weeks post injury ATRA or a RAR selective agonist was dissolved in DMSO (20 mg/ml) and stored at -20 C. Fresh working stocks were prepared fresh daily by dilution in corn oil to a final concentration of 2 mg/ml. […] Control groups were challenged with elastase and 21 days later treated with Vehicle (DMSO/PBS) for 14 days. Animals were sacrificed 24 hours after the last dose of by exsanguination under deep anesthesia. Blood was collected at time of exanguination for analysis of changes in blood chemistry from respective treatments. The lungs were inflated with 10% neutral buffered formalin by intratracheal instillation at a constant rate (1 ml/gram body mass/min). The lung was excised and immersed in fixative for 24 hours prior to processing. Standard methods were used to prepare 5 um paraffin sections. Sections were stained with Hematoxylin and Eosin (H%E). Computerized Morphometric analysis was performed to determine the average alveolar size and alveolar number.

experimental emphysema = experiment: Alveolar repair in rat experimental emphysema, oral dosing; type: in vivo, rats; settings: 1 mg/kg/PO daily for two weeks
Procedure: Three (3) weeks post injury animals were treated with vehicle (Capmul solution) or retinoids prepared in Capmul and dosed orally at 1, 3, and 10 mg/kg body weight. Animals were treated for 14 days prior to termination of study.
Dosage was at 1 mg/kg/PO daily for two weeks.

elastase damaged rats = experiment: Pulmonary gas exchange in elastase damaged rats; type: in vivo
Procedure: Pulmonary and arterial blood gases were determined in elastase damaged rats±retinoid treatment prior to termination of study. Rats were placed under deep anesthesia using pentobarbital (50 mg/kg, i.p. and a tracheal cannula (PE 240) was inserted. The rats were artificially ventilated (f=90, TV=approx 0.5 ml/100 g BW) using a small animal respiratory pump (Harvard). For each rat, the pump parameters were adjusted to establish an arterial CO2 level for the pulmonary artery (PCO2) of 30-35 torr. Arterial blood samples (approx 0.2 ml) were taken from the abdominal aorta (AO2) and immediately analyzed by pHOx blood gas. Data are presented as percent (%) recovery relative to elastase +vehicle treated rats.

EC50 (RARβ [1]): 88 nM
IC50 (RARα): 2700 nM
IC50 (RARβ [2]): 3000 nM
Structure (SMILES): CCCCCCc1cc2c(cc1/C=C/c1ccc(C(=O)O)cc1)C(C)(C)CCC2(C)C [RAR Agonist 3]
Tropo-elastin Expression (tropoelastin gene; CCD-16Lu, 1×10^-7 M, RT-PCR, triplicate, untreated control 30.90): 68.58 (Elastin/GAPDH) × 10^5
tropoelastin gene induction (in words) (tropoelastin gene; human lung fibroblasts, compared to the control): markedly induces tropoelastin gene induction
% Repair ([3]; 0.5 mg/kg ip once daily, from 21 days post injury, 14 days): > 70%
Alveolar Area ([3]; 0.5 mg/kg ip once daily, from 21 days post injury, 14 days, naive 1637 +/- 153, elastase + vehicle 3570 +/- 319): 1929 +/- 150
alveolar repair (in words) ([3]; elastase-treated rats, 0.5 mg/kg ip): markedly induce alveolar repair
light micrographs of lung sections (in words) ([3]; rat lung damaged by elastase and then treated, compared to normal rat lung): showed alveolar area similar to the normal rat lung
% Repair (experimental emphysema): 73.7%
PCO2, recovery relative to elastase + vehicle treated rats (elastase damaged rats; 0.01 mg/kg): 84.6%
PO2, recovery relative to elastase + vehicle treated rats (elastase damaged rats; 0.01 mg/kg): 49.8%
AO2, recovery relative to elastase + vehicle treated rats (elastase damaged rats; abdominal aorta, 0.01 mg/kg): 100%
gas exchange (in words) (elastase damaged rats; elastase-damaged rats): more effective and more potent than the pan agonist (ATRA)
